In the NIST ThermoML archive (doi:10.1016/j.tca.2009.05.014):
Numbers after ± are expanded uncertainties.

Conditions: Crystal, Rate of evaporation

CC(C)(C)C(=O)/C=C(\[O-])C(C)(C)C.CC(C)(C)C(=O)/C=C(\[O-])C(C)(C)C.[Cu+2] [bis(2,2,6,6-tetramethyl-3,5-heptanedionato)copper(II)]
Conditions | vapor or sublimation pressure [kPa]
375 K | 4e-05 ± 4e-06
385 K | 7.2e-05 ± 7e-06
395 K | 0.000151 ± 1.5e-05
404 K | 0.000343 ± 3.4e-05
415 K | 0.00072 ± 7.2e-05
425 K | 0.001456 ± 0.00015
435 K | 0.002373 ± 0.00024
